Experimental findings from patent publication US11253566B2, “Composition for ameliorating, or treating depression and anxiety disorder comprising Fraxinus rhynchophylla extract as effective ingredient” (priority 2017, dated 2022) are described below.

The nature of experiment [1]: Bodyweight change in mouse with induced depression and anxiety disorder. Type of experiment: in vivo. Conditions: 150 mg/kg doxepin, Day 7 or Day 14, vs control group. The protocol: (§1) Fraxinus rhynchophylla extract was dissolved in physiological saline to have a concentration of 100 mg/kg for each, and then aliquoted. One hour before applying the stress for 14 days, the sample was administered via an oral route.
(§2) A 7-week old male C57BL/6 mouse was acclimated for 1 week, and then exposed to a stress everyday between 10:00 to 14:00 o'clock. Specifically, 1 hour after the oral administration of a sample, an electric shock with strength of 0.5 mA was applied to the foot sole of the mouse for 1 sec with an interval of 10 seconds, for 2 minutes in total, by using a shuttle box (JD-SI-10, JEUNG DO BIO & PLANT CO, LTD, Seoul, S. Korea). […]
A change in body weight caused by administration of the ethanol extract of Fraxinus rhynchophylla of the present invention was determined in the animal model with induced depression and anxiety disorder. Specifically, the bodyweight of a mouse was measured, before the exposure to stress (Day 0), or on Day 7 or Day 14 after the exposure to stress for the normal group, the control group (i.e., group induced with depression and anxiety disorder), the test group (i.e., group administered with the ethanol extract of Fraxinus rhynchophylla of the present invention), and the positive control group (i.e., group administered with doxepin) (FIG. 6). […]

In experiment [2] the test system is C57BL/6 mouse with induced depression and anxiety disorder. The experiment can be described thus: Open field test (OFT). The class given is in vivo. Conditions: 150 mg/kg doxepin for 14 days, test on Day 15, vs control group. As to the method: as §1, §2
Open field test is to determine the degree of anxiety, which is one symptom of depression, by measuring the voluntary movement of a mouse after entering an unfamiliar field for the first time. At the center (15 cm×15 cm) of an open box with a dimension of 30 cm×30 cm×30 cm, which is made of white acryl, a C57BL/6 mouse which has been induced to have depression and anxiety disorder was placed, and then total travel distance and frequency of center entry for 10 minutes were measured. For the measurement, after recording using a video camera, the overall movement of the C57BL/6 mouse was analyzed by using Video tracking software (SMART 3.0, Panlab, Spain). […]

The test system is the same in experiment [3]. The experiment is described as follows: Forced swim test (FST). The class given is in vivo. The following applies: 150 mg/kg doxepin for 14 days, test on Day 15, vs control group. As to the method: as §1
as §2, with “Korea). After applying the electric shock, the mouse was put to a hemicylindrical restraining device (JD-R 05A, JEUNG DO BIO & PLANT CO, LTD, Seoul, S. Korea) made of 30 mm-thick acryl, one animal in each device, and then restrained in the immobile state for 2 hours.” for “Korea).”
Forced swim test is a test to determine despair among the symptoms of depression, and the immobility of a mouse was checked using a cylinder having a depth which prevents the animal from touching its paws or tail to the floor of the cylinder. […] Then, the immobility time during 4 minutes, i.e., excluding initial 2 minutes as adaptation period from the total 6 minutes, was measured.

The next experiment concerns cortisol. The experiment is described as follows: Cortisol level in blood serum (ELISA). Conditions: 150 mg/kg doxepin for 14 days, blood on Day 17, vs control group. Type of experiment: in vivo, mouse. As to the method: as §1
(§3) A 7-week old male C57BL/6 mouse was acclimated for 1 week, and then exposed to a stress everyday between 10:00 to 14:00 o'clock. Specifically, 1 hour after the oral administration of a sample, an electric shock with strength of 0.5 mA was applied to the foot sole of the mouse for 1 sec with an interval of 10 seconds, for 2 minutes in total, by using a shuttle box (JD-SI-10, JEUNG DO BIO & PLANT CO, LTD, Seoul, S. Korea). After applying the electric shock, the mouse was put to a hemicylindrical restraining device (JD-R 05A, JEUNG DO BIO & PLANT CO, LTD, Seoul, S. Korea) made of 30 mm-thick acryl, one animal in each device, and then restrained in the immobile state for 2 hours.
(§4) In addition, for the control group, the 12-hour day and night cycle was maintained, but light illumination was applied to the test group for 24 hours to disrupt the regular living pattern, and thus a sleep-interfering environment was created (FIG. 5).
The cortisol level in blood serum separated from each test animal was measured. […] Absorbance at 405 nm was then measured.
Background: An ELISA detects its analyte on a solid surface through an enzyme-linked reagent.

In another experiment the test system is serotonin. The experiment is described as follows: Serotonin level in blood serum (ELISA). The class given is in vivo, mouse. The following applies: 150 mg/kg doxepin for 14 days, blood on Day 17, vs control group. As to the method: as §1, §3, §4
The serotonin level in blood serum separated from each test animal was measured. […] Upon the completion of the reaction, absorbance at a wavelength of 405 nm was measured by using a microplate reader.

In the next experiment the test system is pCREB. The experiment can be described thus: Expression ratio of pCREB protein in hippocampal tissues (Western blot). The class given is in vivo, mouse. The following applies: 150 mg/kg doxepin for 14 days, tissues on Day 17, vs control group. (In general: Immunoblotting shows a protein as a band on a membrane.)
The test system of a further experiment is BDNF and mBDNF. The experiment can be described thus: Expression of BDNF and mBDNF in hippocampal tissues (Western blot). Type of experiment: in vivo, mouse. Conditions: 150 mg/kg doxepin for 14 days, tissues on Day 17, vs control group. The protocol: as §1
as §3, with “hours. […]” for “hours.”
Protein expression pattern in brain hippocampal tissues which have been collected from each test animal was determined by Western blot analysis. […] After obtaining the protein amount in each sample, the protein was quantified to 1 μg/μl, and then the expression amount of protein was measured by using Mini PROTEAN TGX Gels.

Consider `CN(C)CCC=C1c2ccccc2COc2ccccc21` [doxepin], for which, in experiment [1], the “bodyweight (gain rate)” value was “increased in statistically significant sense”. Moreover, in experiment [2], the “number of center entry” value is recorded as “increased in statistically significant sense” and the “travel distance within the center zone” value is recorded as “increase in statistically significant sense”. The immobility time entry in experiment [3] is “decreased in statistically significant sense”. Further, the blood cortisol level entry in the experiment on cortisol was “decreased in statistically significant sense”. The “serotonin hormone level in blood” value in the experiment with serotonin is given as “increased in statistically significant sense”. Moreover, in the experiment on pCREB, the “expression ratio of pCREB protein (pCREB/CREB) in hippocampal tissues” value was “increase in statistically significant sense”. In addition, in the experiment on BDNF and mBDNF, the “relative expression amount of BDNF in hippocampal tissues” value is “increase in statistically significant sense” and the “relative expression amount of mBDNF in hippocampal tissues” value is “increase in statistically significant sense”.
